According to patent publication US8222404B2, “[1,2,4]Thiadiazin-3-yl acetic acid compound and methods of making the acetic acid compound” (Anadys Pharmaceuticals, Inc., priority 2008, dated 2012):

Tested on: HCV Huh-luc/neo-ET replicon cells
Experiment: Luciferase-Based HCV Replicon Assay (EC50 (1b))
Format: cell-based
Conditions: Hepatitis C virus, 72 hours exposure, luciferase activity
How it was run: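 Replicon cells seeded, then exposed 24 h later to a compound concentration series in triplicate for 72 h. Luciferase luminescence read; % inhibition vs no-compound control, with 100 nM BILN-2061 as background, used to derive EC50 (1b).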

SMILES | EC50 [nM]
CS(=O)(=O)NCc1csc2c1S(=O)(=O)N=C(C1=C(O)[C@@H]3C4CCC(CC4)[C@@H]3N(Cc3ccc(F)c(Cl)c3)C1=O)N2 [Example 44, N-{3-[(2S,7R)-3-(3-Chloro-4-fluoro-benzyl)-6-hydroxy-4-oxo-3-aza-tricyclo[6.2.2.0^2,7]dodec-5-en-5-yl]-1,1-dioxo-1,4-dihydro-1λ^6-thieno[2,3-e][1,2,4]thiadiazin-7-ylmethyl}-methanesulfonamide] | ≤ 5
CS(=O)(=O)NCc1csc2c1S(=O)(=O)N=C(C1=C(O)CC(C3CC3)N(Cc3ccc(F)cc3)C1=O)N2 (racemic) [Example 4, rac-N-{3-[6-Cyclopropyl-1-(4-fluoro-benzyl)-4-hydroxy-2-oxo-1,2,5,6-tetrahydro-pyridin-3-yl]-1,1-dioxo-1,4-dihydro-1λ^6-thieno[2,3-e][1,2,4]thiadiazin-7-ylmethyl}-methanesulfonamide] | 100 to 1000
CS(=O)(=O)NCc1csc2c1S(=O)(=O)N=C(C1=C(O)[C@@H]3C4CCC(CC4)[C@@H]3N(Cc3cc(F)c(F)c(F)c3)C1=O)N2 [Example 70, N-{3-[(2S,7R)-6-Hydroxy-4-oxo-3-(3,4,5-trifluoro-benzyl)-3-aza-tricyclo[6.2.2.0^2,7]dodec-5-en-5-yl]-1,1-dioxo-1,4-dihydro-1λ^6-thieno[2,3-e][1,2,4]thiadiazin-7-ylmethyl}-methanesulfonamide] | ≤ 5
